# Test results as given in PubChem BioAssay (NCI).
#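 A five-concentration, 48-hour dose response in 96-well plates underlies each endpoint, interpolated linearly between surrounding concentrations. Here, GI50 denotes the concentration required for 50% inhibition of growth. TGI marks complete inhibition of growth.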
# Legend:
# Assay in all cases: NCI tumour cell line growth inhibition, 48 h
# [1] = test system: SR leukemia
# [2] = test system: SK-MEL-28 melanoma
# [3] = test system: MDA-MB-435
# [4] = test system: SNB-19 CNS
# [5] = test system: A498 renal
# [6] = test system: NCI-H522 lung
# [7] = test system: IGROV1 ovarian
# [8] = test system: HL-60(TB) leukemia
# [9] = test system: LOX IMVI melanoma
# [10] = test system: DU-145 prostate
SMILES,GI50 [1] [µM],TGI [1] [µM],GI50 [2] [µM],TGI [2] [µM],GI50 [3] [µM],TGI [3] [µM],GI50 [4] [µM],TGI [4] [µM],GI50 [5] [µM],TGI [5] [µM],GI50 [6] [µM],TGI [6] [µM],GI50 [7] [µM],TGI [7] [µM],GI50 [8] [µM],TGI [8] [µM],GI50 [9] [µM],TGI [9] [µM],GI50 [10] [µM],TGI [10] [µM]
Oc1c(-c2nnc(-c3ccccc3Cl)o2)sc2nnc(-c3ccccc3)c(-c3ccccc3)c12,3.96,> 100,16.4,> 100,4.26,> 100,4.37,> 100,7.35,41.7,3.59,23.5,2.47,8.78,4.16,> 100,2.55,21.8,8.26,> 100
Cc1c[n+](=O)c2ccccc2n1[O-],,> 100,,> 100,,> 100,,> 100,,> 100,,> 100,,> 100,,,,> 100,,> 100
C=C(C)[C@@H]1CC[C@]2(C)CC[C@]3(C)[C@H](CC[C@@H]4[C@@]5(C)CC[C@H](O)C(C)(C)[C@@H]5CC[C@]43C)[C@@H]12,,> 100,,> 100,,40.4,,> 62.8,,32.6,,55.7,,> 100,,> 100,,36.3,,> 100
C=C1C(=O)O[C@H]2[C@H]1CC/C(CNC(=O)/C=C/c1cc(OC)c(OC)c(OC)c1)=C\CC[C@@]1(C)O[C@@H]21,0.383,9.38,1.43,3.64,2.33,13.5,11.9,32,4.1,15.7,0.232,1.1,3.22,13.9,0.925,3.3,1.28,2.63,4.95,17.3
O.O.[NH-]C1(C(=O)O)CCCC1.[NH-]C1(C(=O)O)CCCC1.[Ni+2],65.9,> 100,,> 100,> 100,> 100,,> 100,,> 100,,> 100,,> 100,,> 100,,> 100,> 100,> 100
COc1ncnc2c(-c3ccccc3)cn(COCc3ccccc3)c12,2.79,43.2,3.33,48.9,2,6.13,6.53,> 100,1.96,10.1,2.09,6.17,7.16,> 100,3.22,18.1,3.27,14.7,10.4,> 100
COc1cccc(N2CCN(CC(=O)N3CCN(c4nnc(-c5ccc(Cl)cc5)c(-c5ccc(Cl)cc5)n4)CC3)CC2)c1,5.04,31.3,> 100,> 100,9.26,> 100,37.9,> 100,19.6,52.1,19.8,> 100,11.1,84.7,3.84,> 100,21.3,> 100,> 100,> 100
CSC(=Nc1nnc(-c2ccc([N+](=O)[O-])cc2)s1)SC,,> 100,,> 100,,> 100,,63.2,,64.6,,99.2,,> 91.6,,> 100,,> 83.3,,> 100
ClCc1cccc2c(CCl)cccc12,0.901,> 100,10.9,24.4,4.28,18.7,5.08,19.7,11,23.7,2.83,16.3,,,4.49,> 100,1.39,4.3,1.76,4.08
CN(CCO)CC[C@H](CSc1ccccc1)Nc1ccc(S(=O)(=O)NC(=O)c2ccc(N3CCC([C@@H](O)c4ccccc4-c4ccc(Cl)cc4)CC3)cc2)cc1S(=O)(=O)C(F)(F)F,2.23,35.7,2.23,5.11,2.31,6.51,2.77,8.57,0.0288,0.252,4.4,> 72.9,2.6,6.63,0.886,8.1,1.43,2.97,21,> 100
O=C1C(Cl)=C(Nc2cccc(F)c2)C(=O)N1Cc1ccc(Cl)cc1,0.128,,2.96,20.6,0.665,2.3,2.57,16.1,2.42,8.99,3.09,13.3,2.92,16.9,,,0.649,3.41,2.67,8.44
O=C(O)CN(CC(=O)O)Cc1cc(C#Cc2ccc(C#Cc3ccccc3)cc2)cc(CN(CC(=O)O)CC(=O)O)n1,,> 62.5,,> 100,,> 100,,> 77,,> 100,,52,,78.1,,> 56.7,,45.8,,> 100
CCCCCCCCNc1cc2c3c(c1)CCCN3CCC2,0.551,> 100,3.87,17.8,0.951,11.7,3.29,19.4,4.2,18.7,0.594,6.47,1.77,8.3,0.33,1.85,1.57,28.5,2.61,12.8
C[C@@]1(C(=O)O)CCC[C@]2(C)C1CC[C@@]13CC(=O)[C@@](CO)(CC[C@]12O)C3 (some centres not stated),> 100,> 100,> 100,> 100,> 100,> 100,90.7,> 100,19.7,> 100,> 100,> 100,> 100,> 100,> 100,> 100,> 100,> 100,> 100,> 100
